In patent US20230172205A1 (priority 2020, published 2023):
Where two headings read alike, the source gives them in different places.

Tests used:
[1] = test system: Phakopsora pachyrhizi, strain with amino acid substitution F129L in the mitochondrial cytochrome b protein; test: Protective control of soybean rust on soybeans (PHAKPA P2); assay type: in vivo; conditions: for % PHAKPA (F129L) Disease level, P2 at 4 ppm: protective P2, 4 ppm; for % PHAKPA (F129L) Disease level, P2 at 4 ppm / % PHAKPA (F129L) Disease level, P2 at 16 ppm: soybean rust F129L strain; for % PHAKPA (F129L) Disease level, P2 at 16 ppm: protective P2, 16 ppm
[2] = test system: Phakopsora pachyrhizi, strain with amino acid substitution F129L in the mitochondrial cytochrome b protein; test: Protective control of soybean rust on soybeans (PHAKPA P6); assay type: in vivo; conditions: for % PHAKPA (F129L) Disease level, P6 at 4 ppm: protective P6, 4 ppm; for % PHAKPA (F129L) Disease level, P6 at 4 ppm / % PHAKPA (F129L) Disease level, P6 at 16 ppm: soybean rust F129L strain; for % PHAKPA (F129L) Disease level, P6 at 16 ppm: protective P6, 16 ppm
[3] = test system: Phakopsora pachyrhizi, isolate sensitive to Qo inhibitors (wt); test: Protective control of soybean rust on detached soybean leaves (PHAKPA P1 DL), wt isolate; assay type: in vivo; conditions: Table C6a
[4] = test system: Phakopsora pachyrhizi, isolate with amino acid substitution F129L in the mitochondrial cytochrome b protein; test: Protective control of soybean rust on detached soybean leaves (PHAKPA P1 DL), F129L isolate; assay type: in vivo; conditions: Table C6b
Pyricularia oryzae = test: microbe, parasite or virus in culture; assay type: cell-based; conditions: Pyricularia oryzae, 168 h, read-out: Fungal growth (%) PYRIOR
[5] = test system: Alternaria solani, sensitive wild-type isolate (wt); test: microbe, parasite or virus in culture; assay type: cell-based; conditions: 168 h, read-out: Fungal growth (%) ALTESO wt
[6] = test system: Alternaria solani, Qo inhibitor-resistant isolate containing F129L in the mitochondrial cytochrome b protein; test: Micro titer plate test, activity against Alternaria solani causing early blight (ALTESO), F129L; assay type: cell-based; conditions: Alternaria solani, 168 h
Microdochium nivale = test: microbe, parasite or virus in culture; assay type: cell-based; conditions: 168 h, read-out: Fungal growth (%) MONGNI
Septoria tritici = test: microbe, parasite or virus in culture; assay type: cell-based; conditions: Zymoseptoria tritici, 168 h, read-out: Fungal growth (%) SEPTTR
[7] = test system: Colletotrichum orbiculare; test: microbe, parasite or virus in culture; assay type: cell-based; conditions: 168 h, read-out: Fungal growth (%) COLLLA

What does the source list for `CNC(=O)/C(=N/OC)c1cccc(C)c1CO/N=C(\C)c1ccc(Cl)cc1` [Ex. 158]?
PHAKPA (F129L) Disease level (%) P2 at 4 ppm ([1]; Table C2, protective, inoculation 2 days after spraying, 4 ppm, % diseased leaf area on soybean, untreated 100): 1%; % PHAKPA (F129L) Disease level, P2 at 4 ppm [1]: 0%; % PHAKPA (F129L) Disease level, P2 at 16 ppm [1]: 0%; PHAKPA (F129L) Disease level (%) P6 at 4 ppm ([2]; Table C2, protective, inoculation six days after spraying, 4 ppm, % diseased leaf area on soybean, untreated 99): 4%; % PHAKPA (F129L) Disease level, P6 at 4 ppm [2]: 2%; % PHAKPA (F129L) Disease level, P6 at 16 ppm [2]: 0%; PHAKPA P1 DL Disease level (%), Qo I-sensitive wt isolate (0% F129L) ([3]; 0.3 ppm, 0 ppm control 93): 38%; PHAKPA P1 DL Disease level (%), Qo I-sensitive wt isolate (0% F129L) ([3]; 1 ppm): 7%; PHAKPA P1 DL Disease level (%), Qo I-sensitive wt isolate (0% F129L) ([3]; 3 ppm): 2%; PHAKPA P1 DL Disease level (%), Qo I-sensitive wt isolate (0% F129L) ([3]; 10 ppm): 1%; PHAKPA P1 DL Disease level (%), Qo I-sensitive wt isolate (0% F129L) ([3]; 30 ppm): 4%; PHAKPA P1 DL Disease level (%), Qo I-sensitive wt isolate (0% F129L) ([3]; 100 ppm): 5%; PHAKPA P1 DL Disease level (%), Qo I-sensitive wt isolate (0% F129L) ([3]; 300 ppm): 4%; PHAKPA P1 DL Disease level (%), Qo I-resistant F129L isolate (100% F129L) ([4]; 0.3 ppm, 0 ppm control 93): 87%; PHAKPA P1 DL Disease level (%), Qo I-resistant F129L isolate (100% F129L) ([4]; 1 ppm): 57%; PHAKPA P1 DL Disease level (%), Qo I-resistant F129L isolate (100% F129L) ([4]; 3 ppm): 8%; PHAKPA P1 DL Disease level (%), Qo I-resistant F129L isolate (100% F129L) ([4]; 10 ppm): 2%; PHAKPA P1 DL Disease level (%), Qo I-resistant F129L isolate (100% F129L) ([4]; 30 ppm): 4%; PHAKPA P1 DL Disease level (%), Qo I-resistant F129L isolate (100% F129L) ([4]; 100 ppm): 4%; PHAKPA P1 DL Disease level (%), Qo I-resistant F129L isolate (100% F129L) ([4]; 300 ppm): 5%; activity at 0.016 ppm (Pyricularia oryzae): 38%; activity at 0.016 ppm [5]: 66%; activity at 0.016 ppm ([6]; Table C5, read-out: Fungal growth (%) ALTESO F129L): 79%; activity at 0.016 ppm (Microdochium nivale): 71%

What does the source list for `CNC(=O)/C(=N/OC)c1cccc(C)c1CO/N=C(\C)c1cccc(C)c1` [Ex. 77]?
PHAKPA (F129L) Disease level (%) P2 at 4 ppm ([1]; P2 at 4 ppm, untreated 92%): 37%; % PHAKPA (F129L) Disease level, P2 at 4 ppm [1]: 67%; % PHAKPA (F129L) Disease level, P2 at 16 ppm [1]: 4%; PHAKPA (F129L) Disease level (%), P6 at 16 ppm ([2]; P6 at 16 ppm, untreated 75%): 20%; % PHAKPA (F129L) Disease level, P6 at 4 ppm [2]: 40%; % PHAKPA (F129L) Disease level, P6 at 16 ppm [2]: 3%; activity at 0.016 ppm (Pyricularia oryzae): 20%; activity at 0.25 ppm (Septoria tritici): 49%; activity at 0.063 ppm [7]: 39%; activity at 0.016 ppm [5]: 73%; activity at 0.016 ppm ([6]; Table C14, read-out: Fungal growth (%) ALTESO F129L): 69%
